Data taken from ChEMBL document CHEMBL4177573 (Bioorg Med Chem, 2017).
Active and inactive are the calls of the source. No cut-off for these calls is given here.

Tests used:
[1] = Tmax in C57BL/6J mouse at 1 mg/kg, sc measured during 5 mins to 24 hrs by LC/MS/MS method; format: ADME, organism-based; conditions: in vivo
Mus musculus [2] = assay: Antiobesity activity in DIO C57BL/6J mouse assessed as reduction in body weight at 0.003 to 0.03 mg/kg, sc for 2 weeks dosed as continuous administration by infusion of osmotic pumps relative to untreated control; format: functional, organism-based
Mus musculus [3] = assay: Antiobesity activity in DIO C57BL/6J mouse assessed as reduction in body weight at 0.01 mg/kg, sc for 2 weeks dosed as continuous administration by infusion of osmotic pumps; format: functional; conditions: 336 h
[4] = Total clearance in C57BL/6J mouse at 1 mg/kg, iv measured during 5 mins to 24 hrs by LC/MS/MS method; format: ADME, organism-based; conditions: in vivo
Mus musculus [5] = assay: Antiobesity activity in DIO C57BL/6J mouse assessed as reduction in body weight at 0.03 mg/kg, sc for 2 weeks dosed as continuous administration by infusion of osmotic pumps relative to untreated control; format: functional; conditions: 336 h
Mus musculus [6] = assay: Drug level in C57BL/6J mouse at 1 mg/kg, iv measured during 5 mins to 24 hrs by LC/MS/MS method; format: ADME, organism-based; conditions: in vivo, read-out: Drug uptake
Mus musculus [7] = assay: Anorectic activity in DIO C57BL/6J mouse assessed as reduction in cumulative food intake at 0.01 mg/kg, sc for 2 weeks dosed as continuous administration by infusion of osmotic pumps relative to untreated control; format: functional, organism-based
[8] = target: T1, Neuropeptide Y receptor type 2 (Homo sapiens, UniProt P49146); assay: Agonist activity at human neuropeptide Y2 receptor expressed in CHO cell membranes assessed as stimulation of [35S]GTPgammaS binding incubated for 120 mins by liquid scintillation counting method; format: functional
T1 sequence (P49146 whole entry): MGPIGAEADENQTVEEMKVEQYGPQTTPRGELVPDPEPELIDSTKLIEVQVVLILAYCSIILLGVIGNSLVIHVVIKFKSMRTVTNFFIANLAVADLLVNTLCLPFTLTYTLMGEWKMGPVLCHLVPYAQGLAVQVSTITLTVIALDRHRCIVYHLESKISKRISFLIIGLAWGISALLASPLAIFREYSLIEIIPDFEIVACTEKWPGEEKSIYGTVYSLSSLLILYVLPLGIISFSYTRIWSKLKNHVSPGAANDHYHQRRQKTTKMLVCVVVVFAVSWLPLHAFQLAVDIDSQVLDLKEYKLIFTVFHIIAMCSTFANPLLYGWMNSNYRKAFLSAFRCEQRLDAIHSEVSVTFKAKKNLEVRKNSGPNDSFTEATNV

Mus musculus [9] = assay: Antiobesity activity in DIO C57BL/6J mouse assessed as reduction in body weight at 0.01 mg/kg, sc for 2 weeks dosed as continuous administration by infusion of osmotic pumps relative to untreated control; format: functional; set-up: scale not given: the % may be the effect or the level left
Mus musculus [10] = assay: Anorectic activity in C57BL/6J mouse assessed as inhibition of food intake at 0.03 to 1 mg/kg/day, sc for 3 days dosed as continuous administration by infusion using osmotic pump; format: functional, organism-based
[11] = target: T2, Neuropeptide Y receptor type 2 (Rattus norvegicus, UniProt Q9ERC0); assay: Agonist activity at rat neuropeptide Y2 receptor by [35S]GTPgammaS binding assay; format: functional
T2 sequence (Q9ERC0 whole entry): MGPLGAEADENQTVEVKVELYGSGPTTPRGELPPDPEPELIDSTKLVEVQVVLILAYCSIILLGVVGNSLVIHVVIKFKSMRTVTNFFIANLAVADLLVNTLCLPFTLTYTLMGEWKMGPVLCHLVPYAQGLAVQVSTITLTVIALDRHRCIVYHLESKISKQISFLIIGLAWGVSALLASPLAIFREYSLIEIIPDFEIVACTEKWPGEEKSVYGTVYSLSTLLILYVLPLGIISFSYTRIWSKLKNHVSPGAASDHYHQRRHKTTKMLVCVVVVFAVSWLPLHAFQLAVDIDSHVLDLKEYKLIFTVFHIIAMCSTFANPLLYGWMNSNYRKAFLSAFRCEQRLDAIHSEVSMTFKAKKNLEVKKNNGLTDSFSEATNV

Mus musculus [12] = assay: Anorectic activity in overnight fasted Y2R-/- C57BL/6J mouse assessed as inhibition of food intake at 10 nmol/kg, sc followed by re-feeding post dose and measured for 2 hrs; format: functional, organism-based
[13] = AUC (0 to 24 hrs) in C57BL/6J mouse at 1 mg/kg, sc measured during 5 mins to 24 hrs by LC/MS/MS method; format: ADME, organism-based; set-up: time < 24 hr, dose 1 mg/kg, route subcutaneous; conditions: in vivo
Mus musculus [14] = assay: Antiobesity activity in DIO C57BL/6J mouse assessed as reduction in perirenal weight at 0.003 to 0.03 mg/kg, sc for 2 weeks dosed as continuous administration by infusion of osmotic pumps relative to untreated control; format: functional, organism-based
[15] = Volume of distribution at steady state in C57BL/6J mouse at 1 mg/kg, iv measured during 5 mins to 24 hrs by LC/MS/MS method; format: ADME, organism-based; conditions: in vivo, read-out: Vdss
Mus musculus [16] = assay: Antiobesity activity in DIO C57BL/6J mouse assessed as reduction in liver weight at 0.003 to 0.03 mg/kg, sc for 2 weeks dosed as continuous administration by infusion of osmotic pumps relative to untreated control; format: functional, organism-based
[17] = Cmax in C57BL/6J mouse at 1 mg/kg, sc measured during 5 mins to 24 hrs by LC/MS/MS method; format: ADME, organism-based; set-up: dose 1 mg/kg, route subcutaneous; conditions: in vivo
[18] = MRT in C57BL/6J mouse at 1 mg/kg, iv measured during 5 mins to 24 hrs by LC/MS/MS method; format: ADME, organism-based; conditions: in vivo
[19] = target: Neuropeptide Y receptor type 4 (Rattus norvegicus, UniProt Q63447); assay: Agonist activity at rat neuropeptide Y4 receptor by [35S]GTPgammaS binding assay; format: functional
Sequence of Neuropeptide Y receptor type 4 (Q63447 whole entry): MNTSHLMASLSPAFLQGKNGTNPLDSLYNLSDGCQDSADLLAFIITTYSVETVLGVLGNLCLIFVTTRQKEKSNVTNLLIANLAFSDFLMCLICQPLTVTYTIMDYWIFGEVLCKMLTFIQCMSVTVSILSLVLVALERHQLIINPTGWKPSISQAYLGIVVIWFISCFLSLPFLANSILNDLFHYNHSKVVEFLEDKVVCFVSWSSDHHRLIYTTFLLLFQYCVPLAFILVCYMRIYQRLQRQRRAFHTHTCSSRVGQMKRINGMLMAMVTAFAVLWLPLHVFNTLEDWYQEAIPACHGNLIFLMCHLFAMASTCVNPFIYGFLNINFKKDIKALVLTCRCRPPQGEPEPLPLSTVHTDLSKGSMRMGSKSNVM

Mus musculus [20] = assay: Anorectic activity in C57BL/6J mouse assessed as inhibition of food intake at 0.3 mg/kg/day, sc dosed as […] and measured after 24 hrs; format: functional
Mus musculus [21] = assay: Antiobesity activity in DIO C57BL/6J mouse assessed as reduction in body weight at 1 mg/kg, sc […] for 2 weeks dosed by infusion of osmotic pumps; format: functional; conditions: 336 h
[22] = target: T1, Neuropeptide Y receptor type 2; assay: Displacement of [125I]-PYY from human neuropeptide Y2 receptor expressed in CHO cell membranes incubated for 60 mins by TopCount based method
Mus musculus [23] = assay: Anorectic activity in C57BL/6J mouse assessed as inhibition of food intake at 0.3 mg/kg/day, sc dosed as […] and measured after 12 hrs; format: functional
Mus musculus [24] = assay: Anorectic activity in overnight fasted C57BL/6J mouse assessed as inhibition of food intake at 10 nmol/kg, sc followed by re-feeding post dose and measured for 2 hrs; format: functional, organism-based
[25] = AUC (0 to 24 hrs) in C57BL/6J mouse at 1 mg/kg, iv measured during 5 mins to 24 hrs by LC/MS/MS method; format: ADME, organism-based; set-up: dose 1 mg/kg, time < 24 hr, route intravenous; conditions: in vivo
Mus musculus [26] = assay: Antiobesity activity in DIO C57BL/6J mouse assessed as reduction in mesenteric fat weight at 0.003 to 0.03 mg/kg, sc for 2 weeks dosed as continuous administration by infusion of osmotic pumps relative to untreated control; format: functional, organism-based
[27] = Bioavailability in C57BL/6J mouse at 1 mg/kg, sc measured during 5 mins to 24 hrs by LC/MS/MS method; format: ADME, organism-based; conditions: in vivo

## CC[C@](C)(NC(=O)[C@H]1C[C@H](O)CN1C(=O)[C@H](CO)NC(=O)c1c[nH]cn1)C(=O)N[C@@H](Cc1ccncc1)C(=O)N[C@@H](CC1CCCCC1)C(=O)N[C@@H](CC(C)(C)C)C(=O)N[C@@H](CC(N)=O)C(=O)N[C@@H](CCCCN)C(=O)NC(C)(C)C(=O)N[C@H](C(=O)N[C@@H](CCCNC(=N)N)C(=O)N[C@@H](CCC(N)=O)C(=O)N[C@@H](CCCNC(=N)N)C(=O)N[C@@H](CC1CCCCC1)C(N)=O)[C@@H](C)O
[1]
  Tmax: 10.2 min
Mus musculus [2]
  Activity: Dose-dependent effect
Mus musculus [3]
  inhibition in vivo at 0.01 mg/kg: 8.9%
[4]
  clearance: 14.2 mL/min/kg
Mus musculus [5]
  inhibition in vivo at 0.03 mg/kg: 15.1%
Mus musculus [6]
  concentration: 2060 nM
Mus musculus [7]
  Activity: Active
[8]
  EC50: 0.15 nM
Mus musculus [9]
  Activity: 8.3%
Mus musculus [10]
  Activity: Dose-dependent effect
[11]
  EC50: 0.038 nM
Mus musculus [12]
  Activity: inactive
[13]
  AUC(0-t) at 24 h: 0.347 µM·h
Mus musculus [14]
  Activity: Active
[15]
  Vd: 0.293 L/kg
Mus musculus [16]
  Activity: Active
[17]
  Cmax: 452 nM
[18]
  MRT: 21 min
[19]
  EC50: > 1000 nM
Mus musculus [20]
  inhibition in vivo at 0.3 mg/kg/day: 22%
Mus musculus [21]
  inhibition in vivo at 1 mg/kg: 7.6%
[22]
  IC50: 0.31 nM
Mus musculus [23]
  inhibition in vivo at 0.3 mg/kg/day: 41%
Mus musculus [24]
  Activity: Active
[25]
  AUC(0-t) at 24 h: 0.577 µM·h
Mus musculus [26]
  Activity: Active
[27]
  bioavailability: 60.2%
